# Measured values taken from ChEMBL document CHEMBL3638458, “Amine substituted methanesulfonamide derivatives as vanilloid receptor ligands” (2014).
# Target: Transient receptor potential cation channel subfamily V member 1 (Homo sapiens, UniProt Q8NER1)
# Test: FLIPR Assay: The FLIPR protocol consists of 2 substance additions. First the compounds to be tested (10 μM) are pipetted onto the cells and the Ca2+ influx is compared with the control (capsaicin 10 μM). This provides the result in % activation based on the Ca2+ signal after the addition of 10 μM of capsaicin (CP). After 5 minutes incubation, 100 nM of capsaicin are applied and the Ca2+ influx is also determined. Desensitising agonists and antagonists lead to suppression of the Ca2+ influx. The % inhibition is calculated compared to the maximum achievable inhibition with 10 μM of capsazepine. Starting from the percentage displacement caused by different concentrations of the compounds to be tested of general formula I, IC50 inhibitory concentrations which cause a 50-percent displacement of capsaicin were calculated. K1 values for the test substances were obtained by conversion by means of the Cheng-Prusoff equation (Cheng, Prusoff; Biochem. Pharmacol. 22, 3099-3108, 1973).
# Sequence of Transient receptor potential cation channel subfamily V member 1 (Q8NER1 whole entry): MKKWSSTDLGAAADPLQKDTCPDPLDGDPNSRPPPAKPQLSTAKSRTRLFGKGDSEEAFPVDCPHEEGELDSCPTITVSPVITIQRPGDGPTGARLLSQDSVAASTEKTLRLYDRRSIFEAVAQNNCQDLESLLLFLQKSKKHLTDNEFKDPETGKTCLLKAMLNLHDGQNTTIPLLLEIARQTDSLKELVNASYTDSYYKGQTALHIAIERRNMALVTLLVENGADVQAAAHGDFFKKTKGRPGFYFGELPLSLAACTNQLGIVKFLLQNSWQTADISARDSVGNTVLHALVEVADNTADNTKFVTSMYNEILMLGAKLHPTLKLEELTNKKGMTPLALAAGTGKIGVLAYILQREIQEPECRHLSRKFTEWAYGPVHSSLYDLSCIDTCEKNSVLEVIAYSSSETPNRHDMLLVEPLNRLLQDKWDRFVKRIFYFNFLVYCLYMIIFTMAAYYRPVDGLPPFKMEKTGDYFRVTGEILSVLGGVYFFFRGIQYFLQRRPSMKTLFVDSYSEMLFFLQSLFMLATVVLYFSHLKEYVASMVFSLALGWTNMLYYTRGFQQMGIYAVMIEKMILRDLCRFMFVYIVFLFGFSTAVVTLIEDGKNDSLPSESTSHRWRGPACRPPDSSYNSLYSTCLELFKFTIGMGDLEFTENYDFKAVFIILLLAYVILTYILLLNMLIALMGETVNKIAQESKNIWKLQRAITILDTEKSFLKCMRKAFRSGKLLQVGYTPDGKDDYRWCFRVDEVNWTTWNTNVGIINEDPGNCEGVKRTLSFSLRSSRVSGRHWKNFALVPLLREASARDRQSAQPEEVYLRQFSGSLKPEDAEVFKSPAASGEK
row,Structure (SMILES),Ki
1,CC1CCN(c2nc(C(F)(F)F)ccc2CNC(=O)C(C)c2cccc(CNS(C)(=O)=O)c2)CC1 (centres undefined),0.102 µM
2,CC(C(=O)NCc1ccc(C(F)(F)F)nc1N1CCCC1)c1ccc(CNS(C)(=O)=O)cc1 (centres undefined),0.02 µM
3,Cc1cc(C(C)C(=O)NCc2ccc(C(F)(F)F)nc2N2CCCC2)ccc1CNS(C)(=O)=O (centres undefined),0.05 µM
4,CCS(=O)(=O)NCc1ccc(C(C)C(=O)NCc2ccc(C(F)(F)F)nc2N2CCC(C)CC2)cc1F (centres undefined),0.004 µM
